Results reported in PubChem BioAssay (NCI).
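Each compound was tested at five concentrations against cells in 96-well plates for 48 hours. TGI: total growth inhibition.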

Assays:
Experiment in all cases: inhibition of tumour cell growth, NCI panel, 48 h
CCRF-CEM leukemia = system: CCRF-CEM leukemia
OVCAR-4 ovarian = system: OVCAR-4 ovarian
OVCAR-8 ovarian = system: OVCAR-8 ovarian
T-47D breast = system: T-47D breast
SNB-19 CNS = system: SNB-19 CNS
MDA-MB-435 = system: MDA-MB-435
CAKI-1 renal = system: CAKI-1 renal
OVCAR-3 ovarian = system: OVCAR-3 ovarian
NCI-H226 lung = system: NCI-H226 lung
ACHN renal = system: ACHN renal
M14 melanoma = system: M14 melanoma
SK-MEL-5 melanoma = system: SK-MEL-5 melanoma
DU-145 prostate = system: DU-145 prostate
EKVX NSCLC = system: EKVX NSCLC
HCT-15 colon = system: HCT-15 colon
KM12 colon = system: KM12 colon
NCI-H522 lung = system: NCI-H522 lung
COLO 205 colon = system: COLO 205 colon
OVCAR-5 ovarian = system: OVCAR-5 ovarian
BT-549 breast = system: BT-549 breast
SW-620 colon = system: SW-620 colon
MDA-MB-231 breast = system: MDA-MB-231 breast
MDA-N = system: MDA-N
HOP-62 NSCLC = system: HOP-62 NSCLC
U251 CNS = system: U251 CNS
A549 NSCLC = system: A549 NSCLC
SF-295 CNS = system: SF-295 CNS
MOLT-4 leukemia = system: MOLT-4 leukemia
HS 578T breast = system: HS 578T breast
TK-10 renal = system: TK-10 renal
RXF 393 renal = system: RXF 393 renal
IGROV1 ovarian = system: IGROV1 ovarian
HCT-116 colon = system: HCT-116 colon
UO-31 renal = system: UO-31 renal
SK-MEL-2 melanoma = system: SK-MEL-2 melanoma
HCC-2998 colon = system: HCC-2998 colon
PC-3 prostate = system: PC-3 prostate
A498 renal = system: A498 renal
HOP-92 NSCLC = system: HOP-92 NSCLC
HL-60(TB) leukemia = system: HL-60(TB) leukemia
K-562 leukemia = system: K-562 leukemia
LOX IMVI melanoma = system: LOX IMVI melanoma
RPMI-8226 leukemia = system: RPMI-8226 leukemia
NCI-H23 lung = system: NCI-H23 lung
786-0 renal = system: 786-0 renal
HT29 colon = system: HT29 colon
UACC-257 melanoma = system: UACC-257 melanoma
NCI/ADR-RES ovarian = system: NCI/ADR-RES ovarian
UACC-62 melanoma = system: UACC-62 melanoma
SK-OV-3 ovarian = system: SK-OV-3 ovarian
SF-539 CNS = system: SF-539 CNS
SF-268 CNS = system: SF-268 CNS
SK-MEL-28 melanoma = system: SK-MEL-28 melanoma
MCF7 breast = system: MCF7 breast
SN12C renal = system: SN12C renal
NCI-H460 lung = system: NCI-H460 lung

Measured: TGI

CC1=C(C(=O)NNC(=O)c2ccccc2)CC(C(=O)NNC(=O)c2ccccc2)=C(C)N1
> 100 µM: all assays above
